Activity calls are given as the source filed them.
What was measured:
[1] = molecular target: Lysosomal acid glucosylceramidase (Homo sapiens, UniProt P04062); assay: Dose response cell-based high throughput screening assay to identify enhancers of beta-glucosidase activity. [Related pubchem assays: 784 ]; format: functional
[2] = molecular target: 5-hydroxytryptamine receptor 1A (Homo sapiens, UniProt P08908); format: functional
[3] = molecular target: T1, Dual specificity protein phosphatase 3 (Homo sapiens, UniProt P51452); assay: inhibition constants for human DUSP3 – biochemical, colorimetric, SAR follow-up (AID 2004)
[4] = molecular target: T2, Tyrosine-protein phosphatase non-receptor type 7 (Homo sapiens, UniProt P35236); format: functional
T2 sequence (P35236 whole entry): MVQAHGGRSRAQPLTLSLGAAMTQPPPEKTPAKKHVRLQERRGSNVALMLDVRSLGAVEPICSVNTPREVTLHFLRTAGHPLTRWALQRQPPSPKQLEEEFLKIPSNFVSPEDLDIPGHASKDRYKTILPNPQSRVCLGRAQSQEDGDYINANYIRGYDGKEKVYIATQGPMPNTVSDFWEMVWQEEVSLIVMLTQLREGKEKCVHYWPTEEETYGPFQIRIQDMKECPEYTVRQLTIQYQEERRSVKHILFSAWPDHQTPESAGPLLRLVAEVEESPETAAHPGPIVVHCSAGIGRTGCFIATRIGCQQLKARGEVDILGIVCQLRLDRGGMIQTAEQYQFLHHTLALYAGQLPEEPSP

[5] = molecular target: Glyceraldehyde-3-phosphate dehydrogenase (Homo sapiens, UniProt P04406)
[6] = molecular target: Heat shock cognate 71 kDa protein (Homo sapiens, UniProt P11142); assay: In Vitro Hsc70 Dose Response Fluorescence Polarization Assay. [Related pubchem assays: 1072 ]
[7] = molecular target: Heat shock 70 kDa protein 1A (Homo sapiens, UniProt P0DMV8); assay: inhibition of Hsp70 binding activity – biochemical, fluorescence polarization, SAR follow-up (AID 1072)
[8] = molecular target: T3, Dual specificity protein phosphatase 6 (Rattus norvegicus, UniProt Q64346)
T3 sequence (Q64346 whole entry): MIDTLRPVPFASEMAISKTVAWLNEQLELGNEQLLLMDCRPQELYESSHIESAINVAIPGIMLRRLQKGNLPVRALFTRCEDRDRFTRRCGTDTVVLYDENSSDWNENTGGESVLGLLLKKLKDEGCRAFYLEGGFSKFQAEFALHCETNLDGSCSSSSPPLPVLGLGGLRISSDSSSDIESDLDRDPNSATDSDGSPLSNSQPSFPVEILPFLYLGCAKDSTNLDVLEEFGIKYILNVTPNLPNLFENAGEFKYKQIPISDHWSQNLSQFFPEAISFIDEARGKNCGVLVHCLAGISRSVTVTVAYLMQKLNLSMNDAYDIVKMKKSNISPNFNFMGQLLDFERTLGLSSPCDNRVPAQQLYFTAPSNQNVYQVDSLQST

[9] = molecular target: T3, Dual specificity protein phosphatase 6; format: functional
[10] = molecular target: Hexokinase HKDC1 (Homo sapiens, UniProt Q2TB90); assay: inhibition of HKDC1 glucose phosphorylation – biochemical, W721R variant, dose response (AID 504729); format: functional
[11] = molecular target: T4, Replicative DNA helicase DnaB (Mycobacterium tuberculosis, UniProt P9WMR3); assay: DnaB intein splicing inhibitors, dose response, biochemical, cell-free fluorescence (AID 449749); format: functional
T4 sequence (P9WMR3 whole entry): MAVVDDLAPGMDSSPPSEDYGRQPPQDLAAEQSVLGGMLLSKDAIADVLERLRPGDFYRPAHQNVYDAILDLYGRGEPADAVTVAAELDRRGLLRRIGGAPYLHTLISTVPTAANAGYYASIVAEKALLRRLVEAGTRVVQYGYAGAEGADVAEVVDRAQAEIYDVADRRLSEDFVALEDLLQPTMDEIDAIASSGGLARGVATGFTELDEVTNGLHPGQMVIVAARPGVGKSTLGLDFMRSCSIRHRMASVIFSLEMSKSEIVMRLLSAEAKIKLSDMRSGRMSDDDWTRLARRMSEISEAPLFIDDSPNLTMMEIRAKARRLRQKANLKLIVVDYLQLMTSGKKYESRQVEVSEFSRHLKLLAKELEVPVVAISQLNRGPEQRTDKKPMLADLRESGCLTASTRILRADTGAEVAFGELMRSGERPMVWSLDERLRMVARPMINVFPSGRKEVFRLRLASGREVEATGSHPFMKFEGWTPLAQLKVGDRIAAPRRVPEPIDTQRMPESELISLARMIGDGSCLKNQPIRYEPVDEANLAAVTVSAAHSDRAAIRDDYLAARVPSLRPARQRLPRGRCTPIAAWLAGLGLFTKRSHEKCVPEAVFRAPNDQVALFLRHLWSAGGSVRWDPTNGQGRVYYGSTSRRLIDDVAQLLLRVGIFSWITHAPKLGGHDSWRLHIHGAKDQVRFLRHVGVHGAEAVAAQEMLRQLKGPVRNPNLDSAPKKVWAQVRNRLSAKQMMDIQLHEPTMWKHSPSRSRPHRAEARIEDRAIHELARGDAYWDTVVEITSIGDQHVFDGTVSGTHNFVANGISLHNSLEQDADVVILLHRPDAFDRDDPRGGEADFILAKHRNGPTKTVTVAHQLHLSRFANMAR

[12] = molecular target: T5, Protein RecA (Mycobacterium tuberculosis, UniProt P9WHJ3); assay: Fluorescence Cell-Free Homogeneous Dose Retest to Identify Inhibitors of RecA-Intein Splicing Activity. [Related pubchem assays (depositor defined):AID2097, AID2223, AID489010, AID492950]; format: functional
T5 sequence (P9WHJ3 whole entry): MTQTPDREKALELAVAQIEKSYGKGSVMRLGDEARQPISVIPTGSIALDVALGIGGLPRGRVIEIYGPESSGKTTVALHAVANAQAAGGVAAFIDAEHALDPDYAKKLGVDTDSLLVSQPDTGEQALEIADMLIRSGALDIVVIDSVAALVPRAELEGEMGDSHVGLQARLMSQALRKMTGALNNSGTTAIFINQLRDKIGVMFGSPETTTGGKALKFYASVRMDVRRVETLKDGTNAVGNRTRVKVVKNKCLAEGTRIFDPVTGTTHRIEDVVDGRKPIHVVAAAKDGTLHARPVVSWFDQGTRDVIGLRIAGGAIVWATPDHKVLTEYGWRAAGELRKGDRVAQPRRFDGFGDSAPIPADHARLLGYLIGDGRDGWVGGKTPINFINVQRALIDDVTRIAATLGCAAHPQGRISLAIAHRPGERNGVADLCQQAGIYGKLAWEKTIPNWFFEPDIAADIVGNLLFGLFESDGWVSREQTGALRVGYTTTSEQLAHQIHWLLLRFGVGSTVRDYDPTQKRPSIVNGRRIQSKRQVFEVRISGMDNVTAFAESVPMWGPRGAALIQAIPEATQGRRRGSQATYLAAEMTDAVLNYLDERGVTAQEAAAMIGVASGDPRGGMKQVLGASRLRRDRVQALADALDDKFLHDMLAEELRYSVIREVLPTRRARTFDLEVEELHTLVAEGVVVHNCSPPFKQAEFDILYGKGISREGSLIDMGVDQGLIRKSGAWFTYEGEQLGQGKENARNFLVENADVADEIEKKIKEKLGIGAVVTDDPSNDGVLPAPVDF

[13] = molecular target: Chaperone protein dnaK (Escherichia coli, UniProt C3TRK2); assay: E. coli DnaK binders, calorimetric Kd – biophysical, isothermal titration calorimetry, beta-domain, full-length DnaK, orthogonal assay for DnaK modulator project, SAR follow-up (AID 1495)
[14] = test system: Vibrio harveyi; assay: Quorum Sensing, LuxS, LuxPQ Measured in Microorganism System Using Plate Reader - 2035-01_Inhibitor_DoseNoFile_DryPowder_Activity. [Related pubchem assays (depositor defined):AID2106]; format: functional, organism-based
[15] = test system: Vibrio harveyi; assay: LuxS/LuxPQ-dependent luminescence inhibition, V. harveyi – dry powder, set 2, dose response (AID 493072); format: functional, organism-based
[16] = molecular target: T1, Dual specificity protein phosphatase 3; assay: SAR VHR1 Fluorescent Assay for In Vitro dose response studies. [Related pubchem assays (depositor defined):AID1654, AID1661, AID1878, AID1992, AID2004, AID2070, AID2085]; format: functional
[17] = molecular target: T1, Dual specificity protein phosphatase 3; assay: MOA VHR1 Fluorescent secondary assay for identification of redox-state modulating compounds. [Related pubchem assays (depositor defined):AID1654, AID1661, AID1878, AID1957]
[18] = molecular target: T2, Tyrosine-protein phosphatase non-receptor type 7; assay: redox-active compounds inhibiting HePTP phosphatase – biochemical, fluorescence, mechanism study (AID 2068); format: functional
[19] = molecular target: T6, Short transient receptor potential channel 4 (Mus musculus, UniProt Q9QUQ5); assay: calcium entry via TRPC4 opening agents – cell-based, HEK293 TRPC4/mu-opioid, Fluo-4 calcium, dose response (AID 434937); format: functional
T6 sequence (Q9QUQ5 whole entry): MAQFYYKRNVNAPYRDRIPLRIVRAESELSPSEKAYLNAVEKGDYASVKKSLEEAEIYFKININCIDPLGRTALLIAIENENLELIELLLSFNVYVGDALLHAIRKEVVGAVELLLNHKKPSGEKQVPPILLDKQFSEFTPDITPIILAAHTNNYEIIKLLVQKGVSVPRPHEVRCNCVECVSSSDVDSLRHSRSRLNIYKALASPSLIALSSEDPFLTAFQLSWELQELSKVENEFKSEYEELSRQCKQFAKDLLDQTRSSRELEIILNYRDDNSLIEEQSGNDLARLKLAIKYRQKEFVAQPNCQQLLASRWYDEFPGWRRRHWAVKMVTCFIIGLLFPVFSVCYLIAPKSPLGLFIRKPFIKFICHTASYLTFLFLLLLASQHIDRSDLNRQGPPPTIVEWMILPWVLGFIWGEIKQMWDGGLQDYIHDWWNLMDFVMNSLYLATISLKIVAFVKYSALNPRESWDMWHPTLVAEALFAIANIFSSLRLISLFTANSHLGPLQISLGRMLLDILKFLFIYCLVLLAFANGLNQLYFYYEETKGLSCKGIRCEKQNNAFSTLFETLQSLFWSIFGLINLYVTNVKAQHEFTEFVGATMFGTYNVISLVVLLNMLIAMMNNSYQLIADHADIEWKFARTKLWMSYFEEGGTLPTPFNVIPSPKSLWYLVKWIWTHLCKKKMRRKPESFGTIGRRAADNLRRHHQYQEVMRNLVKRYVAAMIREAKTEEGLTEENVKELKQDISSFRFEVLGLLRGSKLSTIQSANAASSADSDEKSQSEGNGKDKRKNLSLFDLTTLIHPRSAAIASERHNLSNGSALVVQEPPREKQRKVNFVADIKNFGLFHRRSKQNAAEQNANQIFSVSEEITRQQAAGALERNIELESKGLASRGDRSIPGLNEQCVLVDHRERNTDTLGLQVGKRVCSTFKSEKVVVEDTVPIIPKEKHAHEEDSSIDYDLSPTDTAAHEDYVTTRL

[20] = molecular target: T7, Alkaline phosphatase, tissue-nonspecific isozyme (Homo sapiens, UniProt P05186)
T7 sequence (P05186 whole entry): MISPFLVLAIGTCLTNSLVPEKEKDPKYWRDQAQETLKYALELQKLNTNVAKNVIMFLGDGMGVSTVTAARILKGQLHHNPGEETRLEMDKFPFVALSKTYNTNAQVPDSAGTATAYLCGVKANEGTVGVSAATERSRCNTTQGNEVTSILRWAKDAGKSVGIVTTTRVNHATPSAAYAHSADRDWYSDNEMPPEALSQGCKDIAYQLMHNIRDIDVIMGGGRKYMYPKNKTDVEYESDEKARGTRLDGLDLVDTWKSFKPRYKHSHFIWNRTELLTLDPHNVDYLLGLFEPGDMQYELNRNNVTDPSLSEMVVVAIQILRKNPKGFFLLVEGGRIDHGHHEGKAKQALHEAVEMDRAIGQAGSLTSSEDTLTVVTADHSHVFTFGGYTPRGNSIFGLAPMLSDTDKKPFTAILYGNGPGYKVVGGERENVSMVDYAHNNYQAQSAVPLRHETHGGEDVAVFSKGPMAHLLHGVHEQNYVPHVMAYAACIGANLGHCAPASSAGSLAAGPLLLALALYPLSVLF

T1 sequence (P51452 whole entry): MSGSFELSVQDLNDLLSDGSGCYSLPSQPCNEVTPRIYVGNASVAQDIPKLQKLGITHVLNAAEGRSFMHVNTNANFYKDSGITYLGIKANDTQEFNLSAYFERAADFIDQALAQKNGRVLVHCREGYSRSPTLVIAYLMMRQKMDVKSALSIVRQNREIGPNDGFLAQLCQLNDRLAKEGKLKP
Glyceraldehyde-3-phosphate dehydrogenase, sequence (P04406 whole entry): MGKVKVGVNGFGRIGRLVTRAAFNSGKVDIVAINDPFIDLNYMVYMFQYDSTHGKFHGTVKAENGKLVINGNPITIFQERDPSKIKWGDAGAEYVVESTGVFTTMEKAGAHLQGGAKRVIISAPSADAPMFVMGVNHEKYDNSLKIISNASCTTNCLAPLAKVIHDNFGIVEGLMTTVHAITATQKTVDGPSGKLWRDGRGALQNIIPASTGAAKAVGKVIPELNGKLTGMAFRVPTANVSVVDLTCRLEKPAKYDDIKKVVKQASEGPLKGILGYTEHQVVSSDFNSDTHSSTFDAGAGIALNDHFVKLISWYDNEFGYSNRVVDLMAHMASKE
Hexokinase HKDC1, sequence (Q2TB90 whole entry): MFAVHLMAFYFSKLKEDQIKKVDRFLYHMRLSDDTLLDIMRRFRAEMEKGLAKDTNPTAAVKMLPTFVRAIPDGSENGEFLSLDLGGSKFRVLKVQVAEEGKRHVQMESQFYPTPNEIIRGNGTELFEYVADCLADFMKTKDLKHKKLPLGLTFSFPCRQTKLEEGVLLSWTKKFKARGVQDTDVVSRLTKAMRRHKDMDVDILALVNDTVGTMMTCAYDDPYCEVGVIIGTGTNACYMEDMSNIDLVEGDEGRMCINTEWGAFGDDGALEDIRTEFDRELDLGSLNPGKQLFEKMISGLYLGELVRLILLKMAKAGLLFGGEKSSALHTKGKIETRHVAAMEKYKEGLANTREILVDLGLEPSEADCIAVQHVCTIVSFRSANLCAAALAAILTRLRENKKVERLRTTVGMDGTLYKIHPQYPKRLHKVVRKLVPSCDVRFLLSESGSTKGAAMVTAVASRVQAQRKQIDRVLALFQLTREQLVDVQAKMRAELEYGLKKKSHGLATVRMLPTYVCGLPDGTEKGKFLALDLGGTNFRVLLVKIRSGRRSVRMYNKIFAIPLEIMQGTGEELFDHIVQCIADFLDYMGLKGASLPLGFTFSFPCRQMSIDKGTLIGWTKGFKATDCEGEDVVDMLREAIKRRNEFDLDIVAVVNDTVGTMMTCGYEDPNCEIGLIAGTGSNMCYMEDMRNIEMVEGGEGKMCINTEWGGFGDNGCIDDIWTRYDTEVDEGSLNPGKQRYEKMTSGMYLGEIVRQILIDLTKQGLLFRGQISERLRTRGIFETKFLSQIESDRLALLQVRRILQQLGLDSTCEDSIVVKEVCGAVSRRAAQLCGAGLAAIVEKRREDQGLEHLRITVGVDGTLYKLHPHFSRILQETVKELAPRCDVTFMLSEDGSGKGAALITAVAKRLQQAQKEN
5-hydroxytryptamine receptor 1A, sequence (P08908 whole entry): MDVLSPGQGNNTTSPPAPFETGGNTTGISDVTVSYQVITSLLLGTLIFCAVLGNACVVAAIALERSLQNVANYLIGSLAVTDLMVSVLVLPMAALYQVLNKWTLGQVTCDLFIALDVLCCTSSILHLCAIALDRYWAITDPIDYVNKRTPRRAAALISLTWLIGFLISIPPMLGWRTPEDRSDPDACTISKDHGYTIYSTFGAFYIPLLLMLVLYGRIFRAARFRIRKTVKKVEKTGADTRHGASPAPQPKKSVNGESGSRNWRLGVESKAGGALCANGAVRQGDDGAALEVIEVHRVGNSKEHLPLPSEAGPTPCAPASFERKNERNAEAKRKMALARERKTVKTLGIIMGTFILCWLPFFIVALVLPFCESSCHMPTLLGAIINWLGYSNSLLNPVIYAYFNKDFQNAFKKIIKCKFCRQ
Heat shock cognate 71 kDa protein, sequence (P11142 whole entry): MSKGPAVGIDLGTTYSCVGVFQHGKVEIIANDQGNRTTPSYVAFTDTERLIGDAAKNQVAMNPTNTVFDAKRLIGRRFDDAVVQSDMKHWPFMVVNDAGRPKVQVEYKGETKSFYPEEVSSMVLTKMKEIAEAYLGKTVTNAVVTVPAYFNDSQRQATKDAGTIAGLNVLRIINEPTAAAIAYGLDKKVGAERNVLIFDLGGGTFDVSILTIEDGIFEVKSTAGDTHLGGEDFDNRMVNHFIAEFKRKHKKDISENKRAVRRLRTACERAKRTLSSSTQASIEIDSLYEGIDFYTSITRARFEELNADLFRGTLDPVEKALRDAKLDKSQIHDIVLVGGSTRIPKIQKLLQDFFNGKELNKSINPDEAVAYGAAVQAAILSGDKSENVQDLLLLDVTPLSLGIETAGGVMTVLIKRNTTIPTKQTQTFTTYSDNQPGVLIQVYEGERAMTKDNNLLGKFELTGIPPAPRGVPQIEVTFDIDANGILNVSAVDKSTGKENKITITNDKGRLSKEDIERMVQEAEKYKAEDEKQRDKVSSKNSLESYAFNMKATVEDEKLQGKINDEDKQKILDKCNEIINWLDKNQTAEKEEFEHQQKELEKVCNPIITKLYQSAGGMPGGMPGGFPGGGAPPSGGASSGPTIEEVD
Heat shock 70 kDa protein 1A, sequence (P0DMV8 whole entry): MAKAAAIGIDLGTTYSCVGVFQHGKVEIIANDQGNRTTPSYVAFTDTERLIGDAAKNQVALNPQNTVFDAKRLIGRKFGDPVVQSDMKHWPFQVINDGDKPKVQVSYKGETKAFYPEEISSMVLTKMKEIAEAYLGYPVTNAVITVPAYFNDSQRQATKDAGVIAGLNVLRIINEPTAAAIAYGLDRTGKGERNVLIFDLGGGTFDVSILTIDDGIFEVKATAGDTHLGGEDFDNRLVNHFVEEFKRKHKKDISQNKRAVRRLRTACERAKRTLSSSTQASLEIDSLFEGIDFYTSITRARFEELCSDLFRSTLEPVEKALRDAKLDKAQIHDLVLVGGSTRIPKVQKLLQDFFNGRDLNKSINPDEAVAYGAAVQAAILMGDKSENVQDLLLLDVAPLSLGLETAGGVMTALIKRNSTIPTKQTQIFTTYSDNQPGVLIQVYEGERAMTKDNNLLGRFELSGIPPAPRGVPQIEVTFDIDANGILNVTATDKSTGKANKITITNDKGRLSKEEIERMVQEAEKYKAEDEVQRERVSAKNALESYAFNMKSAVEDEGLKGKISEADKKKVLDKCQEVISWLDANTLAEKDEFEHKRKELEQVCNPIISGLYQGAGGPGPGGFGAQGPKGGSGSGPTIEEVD
Lysosomal acid glucosylceramidase, sequence (P04062 whole entry): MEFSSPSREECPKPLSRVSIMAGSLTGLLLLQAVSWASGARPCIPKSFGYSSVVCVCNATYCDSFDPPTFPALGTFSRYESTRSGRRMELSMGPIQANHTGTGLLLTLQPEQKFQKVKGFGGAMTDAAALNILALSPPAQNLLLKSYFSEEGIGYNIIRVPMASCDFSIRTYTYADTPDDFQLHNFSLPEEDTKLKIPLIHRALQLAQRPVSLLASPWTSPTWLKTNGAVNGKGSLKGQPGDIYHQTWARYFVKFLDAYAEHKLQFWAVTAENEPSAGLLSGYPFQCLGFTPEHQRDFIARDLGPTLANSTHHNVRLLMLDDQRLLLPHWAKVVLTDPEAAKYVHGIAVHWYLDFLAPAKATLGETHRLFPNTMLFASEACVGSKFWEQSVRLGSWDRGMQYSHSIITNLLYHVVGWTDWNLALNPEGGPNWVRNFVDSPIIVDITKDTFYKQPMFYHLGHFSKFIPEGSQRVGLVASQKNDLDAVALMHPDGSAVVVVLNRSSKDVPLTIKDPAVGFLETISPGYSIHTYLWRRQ
Chaperone protein dnaK, sequence (C3TRK2 whole entry): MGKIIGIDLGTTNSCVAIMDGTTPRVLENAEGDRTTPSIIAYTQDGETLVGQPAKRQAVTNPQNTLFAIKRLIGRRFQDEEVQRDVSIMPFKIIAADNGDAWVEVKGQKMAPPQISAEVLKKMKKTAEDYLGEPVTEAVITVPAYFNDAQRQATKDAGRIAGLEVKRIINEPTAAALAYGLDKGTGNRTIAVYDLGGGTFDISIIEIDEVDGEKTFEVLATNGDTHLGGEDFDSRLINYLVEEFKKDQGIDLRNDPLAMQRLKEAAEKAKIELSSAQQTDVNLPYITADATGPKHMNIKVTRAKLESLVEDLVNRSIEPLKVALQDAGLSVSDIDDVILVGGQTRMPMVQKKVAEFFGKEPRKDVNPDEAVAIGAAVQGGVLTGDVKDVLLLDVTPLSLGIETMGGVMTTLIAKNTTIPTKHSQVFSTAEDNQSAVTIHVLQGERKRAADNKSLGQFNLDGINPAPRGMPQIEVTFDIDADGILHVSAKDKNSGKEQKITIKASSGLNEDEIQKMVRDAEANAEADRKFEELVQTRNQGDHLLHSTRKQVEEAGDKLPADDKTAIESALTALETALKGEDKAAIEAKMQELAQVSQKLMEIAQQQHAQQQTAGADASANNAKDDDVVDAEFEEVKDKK

## CCc1ccc(NC(=O)Cn2c(SC)nc3ccccc32)cc1
[1]
  EC50: > 50 µM (not active)
[2]
  EC50: > 50 µM (not active)

## COc1ccc(C2C3C(=O)N(c4ccccc4)C(=O)C3N3CCCN23)cc1 (stereo not given)
[3]
  Ki: 112 µM (inactive)

## O=C(O)C1Nc2c(I)cccc2C2C=CCC12 (stereo not given)
[4]
  IC50: 71.4 µM (active)
[5]
  IC50: 47.8 µM (active)
[6]
  IC50: 14.1 µM (active)
[7]
  IC50: 3.13 µM (active)
[8]
  IC50: > 100 µM (inactive)
[9]
  IC50: > 100 µM (inactive)

## CC(OC(=O)c1cc(O)c2ccccc2c1O)C(=O)Nc1ccc(C(N)=O)cc1 (stereo not given)
[10]
  IC50: 52.7 µM (inactive)
[11]
  AC50: 5.11 µM (active)
[12]
  EC50: 4.51 µM (active)

## O=C(NCc1ccc(Cl)c(Cl)c1)c1cccs1
[13]
  Kd: 7.3 µM (active)

## C=Cn1c(C(=O)O)ccc1-c1ccc(CC)cc1
[14]
  AC50: 2.73 µM (active)
[15]
  AC50: 5.53 µM (active)
[15]; Vibrio harveyi
  AC50: 4.66 µM (active)

## Cc1cc2nc3s/c(=C/c4ccc(-c5ccccc5C(=O)O)o4)c(=O)n3c2cc1C
[4]
  IC50: 3.63 µM (active)
[5]
  IC50: > 100 µM (not active)
[8]
  IC50: 9 µM (active)
[16]
  IC50: 7.49 µM (active)
[17]
  IC50: 2.39 µM (active)
[18]
  IC50: 2.65 µM (active)
[19]
  EC50: 5.96 µM (active)
[9]
  IC50: 26.4 µM (active)

## Cc1ccc(O)c(-c2cc(C(=O)NCc3ccccc3)[nH]n2)c1
[20]
  EC50: > 100 µM (not active)

Source: ChEMBL document CHEMBL1201862, “PubChem BioAssay data set” (2004)
